Consider 3 molecules from publication PMC10095932 (Molecules, 2023).

Assay [1] addresses T1, rat NPR-A (Rattus norvegicus, UniProt P18910).
T1 construct: endogenous in cells; host or cells: rat PC12 cells
T1 sequence (P18910 29-1057): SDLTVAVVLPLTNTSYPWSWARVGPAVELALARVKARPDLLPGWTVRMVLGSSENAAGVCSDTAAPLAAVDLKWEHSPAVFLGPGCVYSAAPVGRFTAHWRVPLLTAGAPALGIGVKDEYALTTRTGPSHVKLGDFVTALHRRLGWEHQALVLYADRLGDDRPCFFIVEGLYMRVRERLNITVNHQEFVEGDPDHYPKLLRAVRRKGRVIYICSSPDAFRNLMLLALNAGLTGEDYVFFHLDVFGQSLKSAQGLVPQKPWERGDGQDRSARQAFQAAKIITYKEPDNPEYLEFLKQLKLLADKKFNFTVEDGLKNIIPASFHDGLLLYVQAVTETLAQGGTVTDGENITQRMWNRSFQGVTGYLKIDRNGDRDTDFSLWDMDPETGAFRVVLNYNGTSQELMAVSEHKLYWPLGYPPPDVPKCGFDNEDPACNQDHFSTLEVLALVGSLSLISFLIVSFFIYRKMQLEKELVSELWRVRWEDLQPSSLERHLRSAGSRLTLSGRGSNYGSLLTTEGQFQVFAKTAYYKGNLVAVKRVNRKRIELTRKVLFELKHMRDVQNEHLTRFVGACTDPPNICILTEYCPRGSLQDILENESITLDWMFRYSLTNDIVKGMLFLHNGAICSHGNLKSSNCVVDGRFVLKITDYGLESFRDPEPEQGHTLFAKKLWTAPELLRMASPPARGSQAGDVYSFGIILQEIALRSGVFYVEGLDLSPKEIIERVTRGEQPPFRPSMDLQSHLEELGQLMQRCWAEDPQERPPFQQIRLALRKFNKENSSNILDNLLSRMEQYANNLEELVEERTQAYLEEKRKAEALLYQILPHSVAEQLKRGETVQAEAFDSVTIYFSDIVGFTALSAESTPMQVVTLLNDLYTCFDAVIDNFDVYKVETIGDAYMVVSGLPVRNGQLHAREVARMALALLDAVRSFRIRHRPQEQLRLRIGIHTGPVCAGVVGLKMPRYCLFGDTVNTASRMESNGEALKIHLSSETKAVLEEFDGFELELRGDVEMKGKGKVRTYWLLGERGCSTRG
In words: cGMP ALPHAscreen, cGMP production in PC12 cells. The format is cell-based. The note with it: for EC50: PC12 cells, cGMP ALPHAscreen. How it is done: NP activity can be determined by the effectiveness of the peptide to elicit cGMP production through NPR-A. The cGMP ALPHAscreen evaluates the ability of peptides to stimulate cGMP production in cells through a non-radioactive, homogenous, proximity assay which encompasses […]. […] In order to evaluate the potency of TNPa-e at rNPR-A, TNPa-e were evaluated using the cGMP ALPHAscreen in rat PC12 cells.
(§1) Cells were cultured at 5% CO2 and 37 °C. HEK 293 cells were cultured in high glucose DMEM (Gibco, Carlsbad, CA, USA) supplemented with 10% FBS, and 1% penicillin/streptomycin. HEK 293 cells were seeded in media lacking penicillin/streptomycin 24 to 48 h pre-transfection. PC12 cells were cultured in high glucose DMEM (Gibco) supplemented with 10% FBS and 1% penicillin/streptomycin.
(§2) The cGMP ALPHAscreen was performed using the ALPHAscreen Protein A detection kit and the biotinylated cGMP supplement (Perkin Elmer, Waltham, MA, USA) with rabbit anti-cGMP polyclonal antibody (Biovision, Mountain View, CA, USA). Cells were detached from the flask and the resulting pellet was resuspended in stimulation buffer (HBSS supplemented with 0.1% w/v BSA and 1 mM IBMX at 37 °C). Cells were added to a white 384-well Optiplate (Perkin Elmer, Waltham, USA) to 30,000 cells per well for HEK 293 cells and 10,000 cells per well for PC12 cells. Cells were incubated with different concentrations of test peptides (concentration range of 1 × 10^−5 to 1 × 10^−11 M in stimulation buffer) at 37 °C for 30 min. Cells were lysed with lysis buffer (1 M HEPES, 0.3% Tween-20, 1% BSA in H2O, pH 7.4). Then 5 μL acceptor-bead mix was added to each well under subdued lighting conditions, followed by 5 μL of donor-bead mix. Plates were incubated for ~12 h, slowly shaking at room temperature. After incubation, the ALPHAscreen signal was measured using an EnVision plate reader (Perkin Elmer). The standard curve consisted of cGMP in a concentration range of 1 × 10^−6 to 1 × 10^−12 M. All data points were acquired in triplicate and were analyzed using GraphPad Prism 5.0 software (GraphPad Software, Inc., San Diego, CA, USA).

The target in assay [2] is T2, human NPR-A (Homo sapiens, UniProt P16066).
T2 construct: expressed in transfected cells; host or cells: HEK 293 cells, transient, Lipofectamine 2000
T2 sequence (P16066 33-1061): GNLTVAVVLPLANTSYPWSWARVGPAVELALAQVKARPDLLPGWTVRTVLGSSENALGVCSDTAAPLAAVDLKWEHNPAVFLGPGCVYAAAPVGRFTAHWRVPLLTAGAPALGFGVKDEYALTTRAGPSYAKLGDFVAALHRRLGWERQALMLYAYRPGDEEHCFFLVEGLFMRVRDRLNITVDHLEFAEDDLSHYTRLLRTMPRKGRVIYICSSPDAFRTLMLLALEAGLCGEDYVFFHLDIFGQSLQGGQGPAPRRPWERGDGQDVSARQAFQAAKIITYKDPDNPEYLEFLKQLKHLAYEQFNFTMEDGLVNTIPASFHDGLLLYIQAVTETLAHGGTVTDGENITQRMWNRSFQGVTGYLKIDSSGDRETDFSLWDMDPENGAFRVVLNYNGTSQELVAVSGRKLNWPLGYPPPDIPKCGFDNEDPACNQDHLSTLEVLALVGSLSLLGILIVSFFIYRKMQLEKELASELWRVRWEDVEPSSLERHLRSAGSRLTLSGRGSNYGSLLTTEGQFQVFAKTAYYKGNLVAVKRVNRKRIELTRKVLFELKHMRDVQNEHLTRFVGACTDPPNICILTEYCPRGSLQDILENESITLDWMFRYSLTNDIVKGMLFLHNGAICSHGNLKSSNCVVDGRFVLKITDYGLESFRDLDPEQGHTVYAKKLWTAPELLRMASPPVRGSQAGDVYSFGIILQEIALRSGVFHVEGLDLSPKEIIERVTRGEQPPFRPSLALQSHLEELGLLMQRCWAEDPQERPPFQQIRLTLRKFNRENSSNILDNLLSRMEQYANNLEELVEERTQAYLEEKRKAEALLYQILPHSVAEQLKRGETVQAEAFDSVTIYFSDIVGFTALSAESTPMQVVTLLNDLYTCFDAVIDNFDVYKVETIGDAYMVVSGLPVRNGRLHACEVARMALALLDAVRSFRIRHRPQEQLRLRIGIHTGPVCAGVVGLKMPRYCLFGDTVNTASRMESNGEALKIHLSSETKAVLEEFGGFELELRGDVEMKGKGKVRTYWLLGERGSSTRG
In words: cGMP ALPHAscreen, cGMP production in HEK 293 cells transiently overexpressing hNPR-A. The format is cell-based. The note with it: HEK 293 cells overexpressing hNPR-A; for Emax at 10 µM: HEK293, read-out: cGMP production, % of the maximum response (compared with DNP, hANP, hBNP); for EC50: 30 min at 37 °C, cGMP ALPHAscreen, three separate experiments in triplicate, read-out: hNPR-A EC50 (95% CI), potency to stimulate cGMP production. The method, then:
as §1
HEK 293 cells were transfected using the lipofectamine 2000 transfection protocol (Invitrogen). Cells (95% confluence) were transfected with 45% pcDNA3.1/hNPR-A, 45% pcDNA3.1, and 10% pEGFP-NI to the optimal DNA concentration specified in the protocol. The co-transfection with pEGFP-NI plasmid allowed the determination of the transfection efficiency. This was assessed by the estimation of the number of GFP-expressing cells using an Olympus IX70 inverted fluorescence microscope. Transfected cells were used for assay purposes within 24 h.
as §2

Where [3] appears, read: 30 min at 37 °C, three to five separate experiments in triplicate, read-out: rNPR-A EC50 (95% CI), potency to stimulate cGMP production.

Where two headings read alike, the source gives them in different places. Where a SMILES comes first, the peptide text is derived from it. Bridges are numbered along the chain shown (N, C = ends).

In the case of `CC[C@H](C)[C@@H]1NC(=O)[C@H](CCCNC(=N)N)NC(=O)[C@H](CC(=O)O)NC(=O)[C@H]([C@@H](C)CC)NC(=O)[C@@H]2CCCN2C(=O)[C@H](Cc2ccccc2)NC(=O)CNC(=O)[C@H](Cc2ccccc2)NC(=O)[C@@H](NC(=O)CNC(=O)[C@H](CC(N)=O)NC(=O)CNC(=O)[C@@H](NC(=O)[C@H](CCCCN)NC(=O)[C@@H]2CCCN2C(=O)[C@H](CC(=O)O)NC(=O)[C@@H](N)CO)[C@@H](C)CC)CSSC[C@@H](C(=O)N[C@@H](CC(N)=O)C(=O)N[C@@H](CCCNC(=N)N)C(=O)N[C@@H](CC(C)C)C(=O)N[C@H](C(=O)N[C@@H](CCC(N)=O)C(=O)N[C@@H](CC(N)=O)C(=O)N2CCC[C@H]2C(=O)N2CCC[C@H]2C(=O)N[C@@H](CCCCN)C(=O)N2CCC[C@H]2C(=O)N[C@H](C(=O)N[C@@H](CO)C(=O)NCC(=O)N[C@@H](CCC(=O)O)C(=O)N[C@@H](CO)C(=O)O)[C@@H](C)CC)C(C)C)NC(=O)CNC(=O)[C@H](CC(C)C)NC(=O)CNC(=O)[C@H](CO)NC(=O)[C@H](C(C)C)NC(=O)[C@H](CO)NC(=O)CNC1=O` [TNPd] (H-SDPKIGNGCFGFPIDRIGSVSGLGCNRLVQNPPKPISGES-OH; disulfide 9-25), the EC50 in assay [1] (setting [3]) worked out at 18 nM. Further, the “selectivity / difference in potency for rNPR-A over hNPR-A” value in assay [1] (rNPR-A (PC12) versus hNPR-A (HEK 293) cGMP potency) is on record as 560 fold. For the same molecule, in assay [2], the Emax at 10 µM was ~30% and the EC50 is > 10000 nM.

Turning to `CC[C@H](C)[C@@H]1NC(=O)[C@H](Cc2c[nH]cn2)NC(=O)[C@H](CC(=O)O)NC(=O)[C@H](CC(C)C)NC(=O)[C@@H]2CCCN2C(=O)[C@H](CC(C)C)NC(=O)CNC(=O)[C@H](Cc2ccccc2)NC(=O)[C@@H](NC(=O)CNC(=O)[C@H](CC(=O)O)NC(=O)CNC(=O)[C@@H](NC(=O)[C@H](CCCCN)NC(=O)[C@@H]2CCCN2C(=O)[C@H](CC(=O)O)NC(=O)[C@@H](N)CO)[C@@H](C)CC)CSSC[C@@H](C(=O)N[C@@H](CC(N)=O)C(=O)N[C@@H](CCCNC(=N)N)C(=O)N2CCC[C@H]2C(=O)N[C@H](C(=O)N[C@@H](CCC(N)=O)C(=O)N[C@@H](CC(N)=O)C(=O)N[C@@H](CCCNC(=N)N)C(=O)N2CCC[C@H]2C(=O)N[C@@H](CCCCN)C(=O)N[C@@H](CCCCN)C(=O)O)C(C)C)NC(=O)CNC(=O)[C@H](CC(C)C)NC(=O)CNC(=O)[C@H](CO)NC(=O)[C@H](C(C)C)NC(=O)[C@H](CO)NC(=O)CNC1=O` [TNPb] (H-SDPKIGDGCFGLPLDHIGSVSGLGCNRPVQNRPKK-OH; disulfide 9-25), the concentration giving a half-maximal response (EC50) is 1200 nM in assay [1] (setting [3]), > 1000 nM in assay [1] (read-out: EC50 at rNPR-A) and > 10000 nM in assay [2]. The Emax at 10 µM in assay [2] is ~30%.

In the case of `CC[C@H](C)[C@H](NC(=O)[C@H](CCCCN)NC(=O)[C@H](CO)NC(=O)[C@H](CC(=O)O)NC(=O)[C@@H](N)CO)C(=O)NCC(=O)N[C@@H](CC(=O)O)C(=O)NCC(=O)N[C@H]1CSSC[C@@H](C(=O)N[C@@H](CC(N)=O)C(=O)N[C@@H](CCCNC(=N)N)C(=O)N2CCC[C@H]2C(=O)N[C@H](C(=O)N[C@@H](CCC(N)=O)C(=O)N[C@@H](CC(N)=O)C(=O)N[C@@H](CCCNC(=N)N)C(=O)N2CCC[C@H]2C(=O)N[C@@H](CCCCN)C(=O)N[C@@H](CCCCN)C(=O)O)C(C)C)NC(=O)CNC(=O)[C@H](CC(C)C)NC(=O)CNC(=O)[C@H](CO)NC(=O)[C@H](C(C)C)NC(=O)[C@H](CO)NC(=O)CNC(=O)[C@H]([C@@H](C)CC)NC(=O)[C@H](Cc2c[nH]cn2)NC(=O)[C@H](CC(=O)O)NC(=O)[C@H](CC(C)C)NC(=O)[C@@H]2CCCN2C(=O)[C@H](CC(C)C)NC(=O)CNC(=O)[C@H](Cc2ccccc2)NC1=O` [TNPa] (H-SDSKIGDGCFGLPLDHIGSVSGLGCNRPVQNRPKK-OH; disulfide 9-25), the EC50 was 2020 nM in assay [1] (setting [3]), > 1000 nM in assay [1] (read-out: EC50 at rNPR-A) and > 10000 nM in assay [2]. For the same molecule, the Emax at 10 µM in assay [2] is < 20%.
